Data: PMC9104013, “Role of Polyamine-Induced Dimerization of Antizyme in Its Cellular Functions” (International Journal of Molecular Sciences, 2022)

What was measured:
mouse OAZ1 (mOAZ1) = target: T1, mouse OAZ1 (mOAZ1) (Mus musculus, UniProt P54369); assay: Isothermal titration calorimetry of polyamines binding to mOAZ1; conditions: for ΔH (enthalpy variation) / Ka (affinity constant): pH 7.5; for ΔH (enthalpy variation): SD did not exceed ±20%; for Ka (affinity constant): SD did not exceed ±25%; for Binding to mOAZ1: under the conditions used; for Kd: read-out: Kd (dissociation constant); for TΔS (entropy variation): calculated from TΔS = ΔH + RTlnKa
T1 construct: Full-length mOAZ1 protein was successfully produced in E. coli; made in house; host or cells: Escherichia coli Rosetta (DE3)
Description: For the precise isothermal titration calorimetry (ITC) experiments only freshly purified samples turned out to be suitable. The thermodynamic parameters of polyamines binding to OAZ1 were measured using a MicroCal iTC200 instrument (GE Healthcare, Chicago, IL, USA) as described elsewhere. Experiments were carried out at 31 °C in buffer containing 25 mM potassium phosphate, pH 7.5; 150 mM KCl; 25% (v/v) glycerol; 1 mM 2-mercaptoethanol; and 1 mM PMSF. Aliquots (2.5 μL) of ligands were injected into a 0.2 mL cell containing the protein solution to achieve a complete binding isotherm. Protein and ligand concentrations were 20 μM and 200 μM, respectively. The heat of dilution was measured by injection of the ligand into the buffer solution or by additional injections of ligand after saturation; the values obtained were subtracted from the heat of reaction to obtain the effective heat of binding. The resulting titration curves were fitted using the MicroCal Origin software, assuming one set of binding sites. Affinity constants (Ka) and enthalpy variations (ΔH) were determined, and the entropy variations (ΔS) were calculated from the equation: TΔS = ΔH + RTlnKa.

OAZ1 protein = test system: OAZ1 protein; design: method as in PMID 11972449; conditions: HTC cells; cited from earlier work
[1] = target: T2, recombinant mOAZ1 protein (Mus musculus, UniProt P54369); assay: Electrophoresis of mOAZ1-Polyamine complex (0.01% SDS in running buffer); assay type: binding; conditions: 200 μM polyamine, 30 min, 20 °C, pH 7.5
T2 construct: Full-length mOAZ1 protein was successfully produced in E. coli; made in house; host or cells: Escherichia coli Rosetta (DE3)
Description: The recombinant mOAZ1 protein (1 μg/band) was incubated with 200 μM of a polyamine at room temperature for 30 min. Then the sample was quenched with a loading buffer (200 mM Tris-HCl, pH 6.8, 0.01% bromophenol blue, and 40% glycerol) and applied onto 12% polyacrylamide gel lacking SDS. Electrophoresis was carried out in a running buffer with decreased SDS concentration (25 mM Tris base; 250 mM glycine; and 0.01% SDS) at 70 V. The gel was stained with Coomassie R-250.

[2] = calculated as 1/Ka, no binding = not detected, Kd > 50 μM not detectable

T1 sequence (P54369 whole entry): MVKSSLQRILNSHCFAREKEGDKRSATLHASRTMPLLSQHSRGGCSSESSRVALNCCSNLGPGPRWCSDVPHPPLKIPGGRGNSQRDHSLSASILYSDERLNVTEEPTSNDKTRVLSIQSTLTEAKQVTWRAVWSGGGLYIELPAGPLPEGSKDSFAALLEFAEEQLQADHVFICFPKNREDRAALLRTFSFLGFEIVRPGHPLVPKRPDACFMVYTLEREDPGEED
T2 sequence (P54369 whole entry): as above

Row | Structure (SMILES) | ΔH (enthalpy variation) (mouse OAZ1 (mOAZ1); ITC, 31 °C) | Ka (affinity constant) (mouse OAZ1 (mOAZ1); ITC, 31 °C) | Binding to mOAZ1 (mouse OAZ1 (mOAZ1); ITC) | Kd (mouse OAZ1 (mOAZ1); [2]) [nM] | TΔS (entropy variation) (mouse OAZ1 (mOAZ1)) | Stoichiometry mOAZ1/Polyamine (mouse OAZ1 (mOAZ1); ITC, 31 °C, pH 7.5, 150 mM KCl, 25% glycerol, protein 20 μM, ligand 200 μM) | Kd (dissociation constant) (mouse OAZ1 (mOAZ1); [2]) | Half-life of OAZ1 protein (OAZ1 protein) | Formation of (mOAZ1)2-Polyamine complex / dimerization [1]
1 | CCNCCCNCCCNCCCNCC [DENSpm, N^1,N^11-diethylnorspermine] | -5.1 kcal/mol | 750000 M⁻¹ | bound to mOAZ1 | 1300 | 3.0 kcal/mol |  |  |  | 
2 | NCCCCN [Put, putrescine] | No binding ^f | No binding ^f | did not |  | No binding ^f | No binding ^f | No binding ^f |  | 
3 | CCNCCCCNCCCCNCCCCNCCCCNC/C=C/CNCCCCNCCCCNCCCCNCCCCNCC [SL-11144] |  |  |  |  |  |  |  | did not increase the half-life of OAZ1 protein | 
4 | NCCCNCCCCNCCCN [Spm, spermine] | -3.7 kcal/mol | 920000 M⁻¹ | bound to mOAZ1 | 1100 | 4.5 kcal/mol |  |  | did not increase the half-life of OAZ1 protein | induce dimerization of OAZ1
